# In US20230111310A1, “CARBOXYLIC ACID DERIVATIVE-SUBSTITUTED IMINO ARYL COMPOUND, PREPARATION METHOD THEREFOR, HERBICIDAL COMPOSITION AND USE THEREOF” (Qingdao Kingagroot Chemical Compound Co., Ltd., priority 2020, published 2023):
# Assays:
# Test in all cases: Weeding effect in post-emergence stage
# Type in all cases: in vivo
# Abutilon theophrasti = conditions: for Weeding effect in post-emergence stage, Abutilon theophrasti: level of fresh weight growth control rate; for Weeding effect in post-emergence stage, Abutilon theophrasti (level): fresh weight control rate level
# Description: (§1) The activity level criteria for plant damage (i.e., growth control rate) are as follows:
# (§2) Monocotyledonous and dicotyledonous weed seeds (Descurainia sophia, Capsella bursa-pastoris, Abutilon theophrasti, Galium aparine, Stellaria media, Lithospermum arvense, rorippa indica, Alopecurus aequalis, Alopecurus japonicus, Eleusine indica, Beckmannia syzigachne, Sclerochloa dura, Conyza Canadensis, Phleum paniculatum, Veronica didyma Tenore, Bromus japonicus, Aegilops tauschii, Phalaris arundinacea, Amaranthus retroflexus, Chenopodiaceae, Commelina communis, Sonchus arvensis, Convolvulus arvensis, Cirsium setosum, Bidens tripartita L., Solanum nigrum, Acalypha australis, Digitaria sanguinalis, Echinochloa crusgalli, Setaria viridis, Setaria glauca, Leptochloa chinensis, Monochoria vaginalis, Sagittaria trifolia, Scirpus juncoides, Cyperus rotundus, Cyperus iria, Cyperus difformis, Fimbristylis, Portulaca oleracea, Xanthium sibiricum, Pharbitis nil, etc.) and major crop seeds (wheat, corn, rice, soybean, cotton, oilseed rape, millet, sorghum, potato, sesame, ricinus, etc.) were placed in plastic pots filled with soil, then covered with 0.5-2 cm of soil, allowed to grow in a good greenhouse environment. After 2 weeks of sowing, the test plants were treated in the 2-3 leaf stage. The tested compounds of the present invention were respectively dissolved in acetone, then added with Tween 80 and 1.5 liter/ha of emulsifiable concentrate of methyl oleate as synergist, diluted with a certain amount of water to obtain a solution with a certain concentration, and sprayed with a spray tower onto the plants. After the application, the plants were cultured for 3 weeks in the greenhouse, and then the experimental results of the weeding were counted. […]
# Alopecurus japonicus = conditions: Dose 15 g/ha
# Description: as §1, §2
# Digitaria sanguinalis = conditions: Dose 15 g/ha; for Weeding effect in post-emergence stage, Digitaria sanguinalis: level of fresh weight growth control rate
# Description: as §1, §2
# Eleusine indica = conditions: Dose 15 g/ha; for Weeding effect in post-emergence stage, Eleusine indica: level of fresh weight growth control rate
# Description: as §1, §2
# Setaria viridis = conditions: Dose 15 g/ha; for Weeding effect in post-emergence stage, Setaria viridis: level of fresh weight growth control rate
# Description: as §1, §2
# Echinochloa crusgalli = conditions: Dose 15 g/ha; for Weeding effect in post-emergence stage, Echinochloa crusgalli: level of fresh weight growth control rate
# Description: as §1
# Monocotyledonous and dicotyledonous weed seeds (Descurainia sophia, Capsella bursa-pastoris, Abutilon theophrasti, Galium aparine, Stellaria media, Lithospermum arvense, rorippa indica, Alopecurus aequalis, Alopecurus japonicus, Eleusine indica, Beckmannia syzigachne, Sclerochloa dura, Conyza Canadensis, Phleum paniculatum, Veronica didyma Tenore, Bromus japonicus, Aegilops tauschii, Phalaris arundinacea, Amaranthus retroflexus, Chenopodiaceae, Commelina communis, Sonchus arvensis, Convolvulus arvensis, Cirsium setosum, Bidens tripartita L., Solanum nigrum, Acalypha australis, Digitaria sanguinalis, Echinochloa crusgalli, Setaria viridis, Setaria glauca, Leptochloa chinensis, Monochoria vaginalis, Sagittaria trifolia, Scirpus juncoides, Cyperus rotundus, Cyperus iria, Cyperus difformis, Fimbristylis, Portulaca oleracea, Xanthium sibiricum, Pharbitis nil, etc.) and major crop seeds (wheat, corn, rice, soybean, cotton, oilseed rape, millet, sorghum, potato, sesame, ricinus, etc.) were placed in plastic pots filled with soil, then covered with 0.5-2 cm of soil, allowed to grow in a good greenhouse environment. After 2 weeks of sowing, the test plants were treated in the 2-3 leaf stage. The tested compounds of the present invention were respectively dissolved in acetone, then added with Tween 80 and 1.5 liter/ha of emulsifiable concentrate of methyl oleate as synergist, diluted with a certain amount of water to obtain a solution with a certain concentration, and sprayed with a spray tower onto the plants. After the application, the plants were cultured for 3 weeks in the greenhouse, and then the experimental results of the weeding were counted. The doses of the used compounds were 500, 250, 125, 60, 30, 15, 7.5 g/ha, and the averages were obtained by repeating for three times.
# [1] = fresh weight control rate level
structure (smiles),measurement,setting,value
CCOC(=O)C(C)O/N=C/c1cc(-n2c(=O)n(C)c(=S)n(C)c2=O)c(F)cc1Cl (racemic) [Compound 2],"Weeding effect in post-emergence stage, Abutilon theophrasti",Abutilon theophrasti; Dose 15 g/ha,5 (Level 5: growth control rate is above 85%)
same,"Weeding effect in post-emergence stage, Alopecurus japonicus",Alopecurus japonicus; level of fresh weight growth control rate,5 (Level 5: growth control rate is above 85%)
same,"Weeding effect in post-emergence stage, Digitaria sanguinalis",Digitaria sanguinalis,5 (Level 5: growth control rate is above 85%)
same,"Weeding effect in post-emergence stage, Eleusine indica",Eleusine indica,5 (Level 5: growth control rate is above 85%)
same,"Weeding effect in post-emergence stage, Setaria viridis",Setaria viridis,5 (Level 5: growth control rate is above 85%)
same,"Weeding effect in post-emergence stage, Echinochloa crusgalli",Echinochloa crusgalli,5 (Level 5: growth control rate is above 85%)
COC(=O)C(C)O/N=C/c1cc(-n2c(=O)n(C)c(=S)n(C)c2=O)c(F)cc1C(F)(F)F (racemic) [Compound 85],"Weeding effect in post-emergence stage, Abutilon theophrasti",Abutilon theophrasti; Dose 15 g/ha,5 (Level 5: growth control rate is above 85%)
same,"Weeding effect in post-emergence stage, Digitaria sanguinalis",Digitaria sanguinalis,5 (Level 5: growth control rate is above 85%)
same,"Weeding effect in post-emergence stage, Eleusine indica",Eleusine indica,5 (Level 5: growth control rate is above 85%)
same,"Weeding effect in post-emergence stage, Setaria viridis",Setaria viridis,5 (Level 5: growth control rate is above 85%)
same,"Weeding effect in post-emergence stage, Echinochloa crusgalli",Echinochloa crusgalli,5 (Level 5: growth control rate is above 85%)
CCC(C)(O/N=C/c1cc(-n2c(=O)cc(C(F)(F)F)n(C)c2=O)c(F)cc1Cl)C(=O)OC (racemic) [Compound 471],"Weeding effect in post-emergence stage, Abutilon theophrasti (level)",Abutilon theophrasti; Dose 15 g/ha,5 (Level 5: growth control rate is above 85%)
COC(=O)C(C)O/N=C/c1cc(-n2c(=O)c(Br)c(C(F)(F)F)n(C)c2=O)c(F)cc1Cl (racemic) [Compound 475],"Weeding effect in post-emergence stage, Abutilon theophrasti (level)",Abutilon theophrasti; Dose 15 g/ha,5 (Level 5: growth control rate is above 85%)
COC(=O)C(C)O/N=C/c1cc(-n2c(=O)c(I)c(C(F)(F)F)n(C)c2=O)c(F)cc1Cl (racemic) [Compound 476],"Weeding effect in post-emergence stage, Abutilon theophrasti (level)",Abutilon theophrasti; Dose 15 g/ha,5 (Level 5: growth control rate is above 85%)
COC(=O)C(C)O/N=C/c1cc(-n2c(=O)c(OC)c(C(F)(F)F)n(C)c2=O)c(F)cc1Cl (racemic) [Compound 477],"Weeding effect in post-emergence stage, Abutilon theophrasti (level)",Abutilon theophrasti; Dose 15 g/ha,5 (Level 5: growth control rate is above 85%)
CC(O/N=C/c1cc(-n2c(=O)c(CCO)c(C(F)(F)F)n(C)c2=O)c(F)cc1Cl)C(=O)OCCO (racemic) [Compound 478],"Weeding effect in post-emergence stage, Abutilon theophrasti (level)",Abutilon theophrasti; Dose 60 g/ha,5 (Level 5: growth control rate is above 85%)
COC(=O)CC(C)O/N=C/c1cc(-n2c(=O)cc(C(F)(F)F)n(C)c2=O)c(F)cc1Cl (racemic) [Compound 481],"Weeding effect in post-emergence stage, Abutilon theophrasti (level)",Abutilon theophrasti; Dose 15 g/ha,5 (Level 5: growth control rate is above 85%)
CCC[C@@H](O/N=C/c1cc(-n2c(=O)n(C)c(=S)n(C)c2=O)c(F)cc1Cl)C(=O)OCC [74(R)],"Weeding effect in post-emergence stage, Abutilon theophrasti",Abutilon theophrasti; Dose 15 g/ha,5 (Level 5: growth control rate is above 85%)
same,"Weeding effect in post-emergence stage, Digitaria sanguinalis",Digitaria sanguinalis,4 (Level 4: growth control rate is greater than or equal to 60% and less than 85%)
same,"Weeding effect in post-emergence stage, Eleusine indica",Eleusine indica,5 (Level 5: growth control rate is above 85%)
same,"Weeding effect in post-emergence stage, Setaria viridis",Setaria viridis,5 (Level 5: growth control rate is above 85%)
same,"Weeding effect in post-emergence stage, Echinochloa crusgalli",Echinochloa crusgalli,5 (Level 5: growth control rate is above 85%)
CC(ON=Cc1cc(-n2c(=O)cc(C(F)(F)F)n(C)c2=O)c(F)cc1Cl)C(=O)OCCOC(=O)C(C)ON=Cc1cc(-n2c(=O)cc(C(F)(F)F)n(C)c2=O)c(F)cc1Cl [451(R)],"Weeding effect in post-emergence stage, Abutilon theophrasti (level)",Abutilon theophrasti; Dose 15 g/ha,5 (Level 5: growth control rate is above 85%)
C[C@@H](O/N=C/c1cc(-n2c(=O)cc(C(F)(F)F)n(C)c2=O)c(F)cc1Cl)C(=O)NO [452(R)],"Weeding effect in post-emergence stage, Abutilon theophrasti (level)",Abutilon theophrasti; Dose 15 g/ha,5 (Level 5: growth control rate is above 85%)
CC[C@@](C)(O/N=C/c1cc(-n2c(=O)cc(C(F)(F)F)n(C)c2=O)c(F)cc1Cl)C(=O)OC [471(R)],"Weeding effect in post-emergence stage, Abutilon theophrasti (level)",Abutilon theophrasti; Dose 15 g/ha,5 (Level 5: growth control rate is above 85%)
COC(=O)[C@@H](C)O/N=C/c1cc(-n2c(=O)c(Br)c(C(F)(F)F)n(C)c2=O)c(F)cc1Cl [475(R)],"Weeding effect in post-emergence stage, Abutilon theophrasti (level)",Abutilon theophrasti; Dose 15 g/ha,5 (Level 5: growth control rate is above 85%)
COC(=O)[C@@H](C)O/N=C/c1cc(-n2c(=O)c(I)c(C(F)(F)F)n(C)c2=O)c(F)cc1Cl [476(R)],"Weeding effect in post-emergence stage, Abutilon theophrasti (level)",Abutilon theophrasti; Dose 15 g/ha,5 (Level 5: growth control rate is above 85%)
COC(=O)[C@@H](C)O/N=C/c1cc(-n2c(=O)c(OC)c(C(F)(F)F)n(C)c2=O)c(F)cc1Cl [477(R)],"Weeding effect in post-emergence stage, Abutilon theophrasti (level)",Abutilon theophrasti; Dose 15 g/ha,5 (Level 5: growth control rate is above 85%)
C[C@@H](O/N=C/c1cc(-n2c(=O)c(CCO)c(C(F)(F)F)n(C)c2=O)c(F)cc1Cl)C(=O)OCCO [478(R)],"Weeding effect in post-emergence stage, Abutilon theophrasti (level)",Abutilon theophrasti; Dose 60 g/ha,5 (Level 5: growth control rate is above 85%)
COC(=O)C[C@@H](C)O/N=C/c1cc(-n2c(=O)cc(C(F)(F)F)n(C)c2=O)c(F)cc1Cl [481(R)],"Weeding effect in post-emergence stage, Abutilon theophrasti (level)",Abutilon theophrasti; Dose 15 g/ha,5 (Level 5: growth control rate is above 85%)
CC(O/N=C/c1cc(-n2c(=O)n(C)c(=S)n(C)c2=O)c(F)cc1Cl)C(=O)OCc1cccnc1 (stereo not shown) [Compound 59],"Weeding effect in post-emergence stage, Abutilon theophrasti",Abutilon theophrasti; Dose 15 g/ha,5 (Level 5: growth control rate is above 85%)
same,"Weeding effect in post-emergence stage, Digitaria sanguinalis",Digitaria sanguinalis,5 (Level 5: growth control rate is above 85%)
same,"Weeding effect in post-emergence stage, Eleusine indica",Eleusine indica,5 (Level 5: growth control rate is above 85%)
same,"Weeding effect in post-emergence stage, Setaria viridis",Setaria viridis,5 (Level 5: growth control rate is above 85%)
same,"Weeding effect in post-emergence stage, Echinochloa crusgalli",Echinochloa crusgalli,5 (Level 5: growth control rate is above 85%)
CCCC(O/N=C/c1cc(-n2c(=O)n(C)c(=S)n(C)c2=O)c(F)cc1Cl)C(=O)OCC (stereo not shown) [Compound 74],"Weeding effect in post-emergence stage, Abutilon theophrasti",Abutilon theophrasti; Dose 15 g/ha,5 (Level 5: growth control rate is above 85%)
same,"Weeding effect in post-emergence stage, Digitaria sanguinalis",Digitaria sanguinalis,4 (Level 4: growth control rate is greater than or equal to 60% and less than 85%)
same,"Weeding effect in post-emergence stage, Eleusine indica",Eleusine indica,4 (Level 4: growth control rate is greater than or equal to 60% and less than 85%)
same,"Weeding effect in post-emergence stage, Setaria viridis",Setaria viridis,5 (Level 5: growth control rate is above 85%)
same,"Weeding effect in post-emergence stage, Echinochloa crusgalli",Echinochloa crusgalli,5 (Level 5: growth control rate is above 85%)
CC(O/N=C/c1cc(-n2c(=O)cc(C(F)(F)F)n(C)c2=O)c(F)cc1Cl)C(=O)OCCOC(=O)C(C)O/N=C/c1cc(-n2c(=O)cc(C(F)(F)F)n(C)c2=O)c(F)cc1Cl (stereo not shown) [Compound 451],"Weeding effect in post-emergence stage, Abutilon theophrasti (level)",Abutilon theophrasti; Dose 15 g/ha,5 (Level 5: growth control rate is above 85%)
CC(O/N=C/c1cc(-n2c(=O)cc(C(F)(F)F)n(C)c2=O)c(F)cc1Cl)C(=O)NO (stereo not shown) [Compound 452],"Weeding effect in post-emergence stage, Abutilon theophrasti (level)",Abutilon theophrasti; Dose 15 g/ha,5 (Level 5: growth control rate is above 85%)
COC(=O)CCO/N=C/c1cc(-n2c(=O)cc(C(F)(F)F)n(C)c2=O)c(F)cc1Cl [Compound 479],"Weeding effect in post-emergence stage, Abutilon theophrasti (level)",Abutilon theophrasti; Dose 15 g/ha,5 (Level 5: growth control rate is above 85%)
CCOC(=O)CCO/N=C/c1cc(-n2c(=O)cc(C(F)(F)F)n(C)c2=O)c(F)cc1Cl [Compound 480],"Weeding effect in post-emergence stage, Abutilon theophrasti (level)",Abutilon theophrasti; Dose 15 g/ha,5 (Level 5: growth control rate is above 85%)
"COC(=O)C(C)O/N=C/c1cc(-n2c(=O)cc(C(F)(F)F)n(N)c2=O)c(F)cc1Cl (stereo not shown) [Control compound E, reference compound]","Weeding effect in post-emergence stage, Alopecurus japonicus (level)",Alopecurus japonicus; [1],3 (Level 3: growth control rate is greater than or equal to 40% and less than 60%)
same,"Weeding effect in post-emergence stage, Digitaria sanguinalis (level)",Digitaria sanguinalis; [1],3 (Level 3: growth control rate is greater than or equal to 40% and less than 60%)
same,"Weeding effect in post-emergence stage, Eleusine indica (level)",Eleusine indica; [1],3 (Level 3: growth control rate is greater than or equal to 40% and less than 60%)
same,"Weeding effect in post-emergence stage, Setaria viridis (level)",Setaria viridis; [1],4 (Level 4: growth control rate is greater than or equal to 60% and less than 85%)
same,"Weeding effect in post-emergence stage, Echinochloa crusgalli (level)",Echinochloa crusgalli; [1],4 (Level 4: growth control rate is greater than or equal to 60% and less than 85%)
